Results on 18 molecules are retold here after patent US5972898A, “3',3-N-bis-substituted macrolide LHRH antagonists” (Abbott Laboratories, priority 1998, dated 1999).

One experiment deals with T1, LHRH rat pituitary receptor (Rattus norvegicus, UniProt P30969).
T1 construct: from tissue; host or cells: rat pituitary
T1 sequence (P30969 1-327): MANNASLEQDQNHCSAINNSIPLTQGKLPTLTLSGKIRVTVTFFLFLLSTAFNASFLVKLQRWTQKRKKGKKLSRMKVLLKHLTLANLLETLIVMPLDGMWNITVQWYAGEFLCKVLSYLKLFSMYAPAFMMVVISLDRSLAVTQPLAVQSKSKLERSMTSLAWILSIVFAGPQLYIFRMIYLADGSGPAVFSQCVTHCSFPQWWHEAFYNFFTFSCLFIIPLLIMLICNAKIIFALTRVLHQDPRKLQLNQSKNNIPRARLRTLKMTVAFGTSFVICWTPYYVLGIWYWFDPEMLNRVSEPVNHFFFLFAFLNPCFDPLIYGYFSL
The experiment is described as follows: LHRH rat pituitary receptor binding (pKI). The note with it: in vitro. How it is done: Representative compounds of the present invention were evaluated in in vitro tests for LHRH rat pituitary receptor binding (pKI) and for LH inhibition from rat pituitary cells for antagonist potency (pA2). […] The receptor binding affinity (pKI) is the negative equilibrium dissociation constants.
Turning to “3',3 -N-Bisdesmethyl-3'-N-cyclopropylmethyl-3'-N-4-hydroxymethyl-(2-furylmethyl-11-Deoxy-11-[carboxy-(3,4-dichlorophenethylamino)]-6-O-methyl-erythromycinA 11,12-(cyclic carbamate) [Example 21]”, the “pKI (receptor binding affinity)” value turned out to be 8.34.
As to “3',3'-N-Bisdesmethyl-3'-N-cyclopentyl-3'-N-cyclopropylmethyl-11-deoxy-11-[carboxy-(3-chloro-4-fluorophenethylamino)]-6-O-methyl-erythromycin A 11,12-(cyclic carbamate) [Example 16]”, the “pKI (receptor binding affinity)” value is 8.87.
Take “3',3'-N-Bisdesmethyl-3'-N-cyclopropylmethyl-3'-N-(2-furyl)methyl-11-deoxy-11-[carboxy-(3-chloro-4-fluorophenethylamino)]-6-O-methyl-erythromycin A 11,12-(cyclic carbamate) [Example 24]”: the “pKI (receptor binding affinity)” value stood at 8.00.
For “3',3'-N-Bisdesmethyl-3'-N-cyclopropylmethyl-3'-N-(4hydroxymethyl-2-furyl)methyl-11-deoxy-11-[carboxy-(3-chloro-4-fluorophenethylamino)]-6-O-methyl-erythromycin A 11,12-(cyclic carbamate) [Example 23]”, the “pKI (receptor binding affinity)” value was 8.98.
On to “3',3'-N-Bisdesmethyl-3'-N-cyclopropylmethyl-3'-N-(6-methyl-2-pyridyl)methyl-11-deoxy-11-[carboxy-(3-chloro-4-fluorophenethylamino)]-6-O-methyl-erythromycin A 11,12-(cyclic carbamate) [Example 25]”, for which the “pKI (receptor binding affinity)” value turned out to be 8.58.
On the same count and under the same terms, under `CC[C@H]1OC(=O)[C@H](C)[C@@H](O[C@H]2C[C@@](C)(OC)[C@@H](O)[C@H](C)O2)[C@H](C)[C@@H](O[C@@H]2O[C@H](C)C[C@H](N(CC3CC3)C(C)C)[C@H]2O)[C@](C)(OC)C[C@@H](C)C(=O)[C@H](C)[C@H]2N(CCc3ccc(Cl)cc3)C(=O)O[C@]12C` [Example 7, 3',3'-N-Bisdesmethyl-3'-N-cyclopropylmethyl-3'-N-isopropyl-11-deoxy-11-carboxy-(4-chlorophenethylamino)]-6-O-methyl-erythromycin A 11,12-(cyclic carbamate)] stands 8.56; under `CC[C@H]1OC(=O)[C@H](C)[C@@H](O[C@H]2C[C@@](C)(OC)[C@@H](O)[C@H](C)O2)[C@H](C)[C@@H](O[C@@H]2O[C@H](C)C[C@H](N(CC3CC3)C3CCC3)[C@H]2O)[C@](C)(OC)C[C@@H](C)C(=O)[C@H](C)[C@H]2N(CCc3ccc(F)c(Cl)c3)C(=O)O[C@]12C` [Example 19, 3',3'-N-Bisdesmethyl-3'-N-cyclobutyl-3'-N-cyclopropylmethyl-11-deoxy-11-[carboxy-(3-chloro-4-fluorophenethylamino)]-6-O-methyl-erythromycin A 11,12-(cyclic carbamate)], 9.08.

Still in this experiment, the particulars now being: in vitro, read-out: pKI (receptor binding affinity) (converted).
Turning to `CC[C@H]1OC(=O)[C@H](C)[C@@H](O[C@H]2C[C@@](C)(OC)[C@@H](O)[C@H](C)O2)[C@H](C)[C@@H](O[C@@H]2O[C@H](C)C[C@H](N(CC3CC3)CC3CC3)[C@H]2O)[C@](C)(OC)C[C@@H](C)C(=O)[C@H](C)[C@H]2N(CCc3ccc(Cl)c(Cl)c3)C(=O)O[C@]12C` [Example 1], the Ki was 18.6 nM.
Turning to `CC[C@H]1OC(=O)[C@H](C)[C@@H](O[C@H]2C[C@@](C)(OC)[C@@H](O)[C@H](C)O2)[C@H](C)[C@@H](O[C@@H]2O[C@H](C)C[C@H](N(CC3CC3)CC3CC3)[C@H]2O)[C@](C)(OC)C[C@@H](C)C(=O)[C@H](C)[C@H]2N(CCc3ccc(Cl)cc3)C(=O)O[C@]12C` [Example 3, 3',3'-N-Bisdesmethyl-3',3'-N-biscyclolpropylmethyl-11-deoxy-11-[carboxy-(4-chlorophenetlylamino)]-6-methyl-eryromycin A 11,12-(cyclic carbamate)], the Ki was 4.17 nM.
As for `CCCN(C(C)C)[C@H]1C[C@@H](C)O[C@@H](O[C@@H]2[C@@H](C)[C@H](O[C@H]3C[C@@](C)(OC)[C@@H](O)[C@H](C)O3)[C@@H](C)C(=O)O[C@H](CC)[C@@]3(C)OC(=O)N(CCc4ccc(Cl)cc4)[C@@H]3[C@@H](C)C(=O)[C@H](C)C[C@@]2(C)OC)[C@@H]1O` [Example 6, 3',3'-N-Bisdesmethyl-3'-N-isopropyl-3'-N-propyl-11-deoxy-11-[carboxy-(4-chlorophenethylamino)]-6-O-methyl-erythromycin A 11,12-(cyclic carbamate)], the Ki is 8.32 nM.
Turning to `CC[C@H]1OC(=O)[C@H](C)[C@@H](O[C@H]2C[C@@](C)(OC)[C@@H](O)[C@H](C)O2)[C@H](C)[C@@H](O[C@@H]2O[C@H](C)C[C@H](N(CC)C(C)C)[C@H]2O)[C@](C)(OC)C[C@@H](C)C(=O)[C@H](C)[C@H]2N(CCc3ccc(Cl)cc3)C(=O)O[C@]12C` [Example 8, 3',3'-N-Bisdesmethyl-3'-N-ethyl-3'-N-isopropyl-11-deoxy-11-[carboxy-(4-chlorophenethylamino)]-6-O-methyl-erythromycin A 11,12-(cyclic carbamate)], the Ki was 2.51 nM.
`CC[C@H]1OC(=O)[C@H](C)[C@@H](O[C@H]2C[C@@](C)(OC)[C@@H](O)[C@H](C)O2)[C@H](C)[C@@H](O[C@@H]2O[C@H](C)C[C@H](N(CC3CCC3)CC3CC3)[C@H]2O)[C@](C)(OC)C[C@@H](C)C(=O)[C@H](C)[C@H]2N(CCc3ccc(Cl)cc3)C(=O)O[C@]12C` [Example 9, 3',3'-N-Bisdesmethyl-3'-N-cyclobutylmethyl-3'-N-cyclopropylmethyl-11-deoxy-11-[carboxy-(4-chlorophenethylamino)]-6-methyl-erythromycin A 11,12-(cycliccarbamate)]: the Ki was 6.31 nM.
In the case of `CC[C@H]1OC(=O)[C@H](C)[C@@H](O[C@H]2C[C@@](C)(OC)[C@@H](O)[C@H](C)O2)[C@H](C)[C@@H](O[C@@H]2O[C@H](C)C[C@H](N(CC3CC3)CC3CC3)[C@H]2O)[C@](C)(OC)C[C@@H](C)C(=O)[C@H](C)[C@H]2N(CCc3ccc(OC)cc3)C(=O)O[C@]12C` [Example 10, 3',3'-N-Bisdesmethyl-3',3'-N-biscyclopropylmethyl-11-deoxy-11-[carboxy-(4-methoxyphenethylamino)]-6-O-methyl-erythromycin A 11,12-(cyclic carbamate)], the Ki was 1.41 nM.
As to `CC[C@H]1OC(=O)[C@H](C)[C@@H](O[C@H]2C[C@@](C)(OC)[C@@H](O)[C@H](C)O2)[C@H](C)[C@@H](O[C@@H]2O[C@H](C)C[C@H](N(CC3CC3)CC3CC3)[C@H]2O)[C@](C)(OC)C[C@@H](C)C(=O)[C@H](C)[C@H]2N(CCc3ccc(F)cc3)C(=O)O[C@]12C` [Example 11, 3',3'-N-Bisdesmethyl-3',3'-N-biscyclopropylmethyl-11-deoxy-11-[carboxy-(4-fluorophenethylamino)]-6-O-methyl-erthromycin A 11,12-(cyclic carbamate)], the Ki was 2.19 nM.
On the same count and under the same terms, the figure for `CC[C@H]1OC(=O)[C@H](C)[C@@H](O[C@H]2C[C@@](C)(OC)[C@@H](O)[C@H](C)O2)[C@H](C)[C@@H](O[C@@H]2O[C@H](C)C[C@H](N(C3CCC3)C3CCC3)[C@H]2O)[C@](C)(OC)C[C@@H](C)C(=O)[C@H](C)[C@H]2N(CCc3ccc(Cl)c(F)c3)C(=O)O[C@]12C` [Example 12, 3',3'-N-Bisdesmethyl-3',3'-N-biscyclobutyl-11-deoxy-11-[carboxy-(4-chloro-3-fluorophenethylamino)]-O-methl-erythromycin A 11,12-(cyclic carbamate)] is 1 nM; for `CC[C@H]1OC(=O)[C@H](C)[C@@H](O[C@H]2C[C@@](C)(OC)[C@@H](O)[C@H](C)O2)[C@H](C)[C@@H](O[C@@H]2O[C@H](C)C[C@H](N(CC3CC3)CC3CC3)[C@H]2O)[C@](C)(OC)C[C@@H](C)C(=O)[C@H](C)[C@H]2N(CCc3ccc(F)c(Cl)c3)C(=O)O[C@]12C` [Example 15, 3',3'-N-Bisdesmethyl-3',3'-N-biscyclopropylmethyl-11-deoxy-11-[carboxy-(3-chloro-4-fluorophenetlamino)]-6-O-methyl-erythromycin A 11,12-(cyclic carbamate)] it is 1.26 nM.
Turning to `CC[C@H]1OC(=O)[C@H](C)[C@@H](O[C@H]2C[C@@](C)(OC)[C@@H](O)[C@H](C)O2)[C@H](C)[C@@H](O[C@@H]2O[C@H](C)C[C@H](N(CCCc3ccccn3)CCCc3ccccn3)[C@H]2O)[C@](C)(OC)C[C@@H](C)C(=O)[C@H](C)[C@H]2N(CCc3ccc(Cl)c(Cl)c3)C(=O)O[C@]12C` [Example 20, 3',3'-N-Bisdesmethyl-3',3'-N-bis-[3-(2-pyridyl)-propyl]-11-deoxy-11-[carboxy-(3,4-dichlorophenethylamino)]-6-O-methyl-erythromycin A 11,12-(cyclic carbamate)], the Ki is 3.98 nM.
As to `CC[C@H]1OC(=O)[C@H](C)[C@@H](O[C@H]2C[C@@](C)(OC)[C@@H](O)[C@H](C)O2)[C@H](C)[C@@H](O[C@@H]2O[C@H](C)C[C@H](N(CCCc3ccncc3)CC3CC3)[C@H]2O)[C@](C)(OC)C[C@@H](C)C(=O)[C@H](C)[C@H]2N(CCc3ccc(Cl)c(Cl)c3)C(=O)O[C@]12C` [Example 22, 3',3'-N-Bisdesmethyl-3'-N-cyclopropylmethyl-3'-N-[3-(4-pyridyl)propyl]-11-deoxy-11-[carboxy-(3,4-dichlorophenethylamino)]-6-O-methyl-erythromycin A 11,12-(cyclic carbamate)], the Ki is 1.91 nM.
